Test results published in DBAASP.
Values after ≈ are worked out from the molar mass of the structure shown. One block for each compound: values may come before it.

Key:
Experiment in all cases: ≥ marks a high value that may be exact or a test limit, other limits are often not marked, values filed in µg/mL are converted to µM
[1] = system: Bacillus subtilis KCTC 3068
[2] = system: Enterococcus faecalis KCTC 2011
[3] = system: Escherichia coli KCTC 1682
[4] = system: Proteus vulgaris KCTC 2433
[5] = system: Pseudomonas aeruginosa KCTC 1637
[6] = system: Salmonella typhimurium KCTC 1926
[7] = system: Staphylococcus aureus KCTC 1621
[8] = system: Staphylococcus epidermidis KCTC 1917
Escherichia coli BL21AI = system: Escherichia coli BL21AI
[9] = system: Micrococcus luteus DSM 1790
[10] = system: Escherichia coli KCTC 2223
[11] = system: Micrococcus luteus ATCC 10240
[12] = system: Salmonella typhimurium KCTC 2370
[13] = system: Staphylococcus aureus ATCC 15752
[14] = system: Candida albicans ATCC 10231
[15] = system: Enterococcus faecalis ATCC 29212
Escherichia coli O157:H7 = system: Escherichia coli O157:H7
[16] = system: Salmonella enterica subsp. arizonae CICC 21506
[17] = system: Salmonella enterica subsp. enterica serovar Aberdeen CICC 21492
[18] = system: Salmonella enterica subsp. enterica serovar Adelaide CICC 21505
[19] = system: Salmonella enterica subsp. enterica serovar Agona CICC 21586
[20] = system: Salmonella enterica subsp. enterica serovar Anatum CICC 21498
[21] = system: Salmonella enterica subsp. enterica serovar Blockley CICC 21489
[22] = system: Salmonella enterica subsp. enterica serovar Bonn CICC 21677
[23] = system: Salmonella enterica subsp. enterica serovar Bovismorbificans CICC 21499
[24] = system: Salmonella enterica subsp. enterica serovar Braenderup ATCC H9812
[25] = system: Salmonella enterica subsp. enterica serovar Dakar CICC 21507
[26] = system: Salmonella enterica subsp. enterica serovar Dublin CICC 21497
[27] = system: Salmonella enterica subsp. enterica serovar Eastbourne CICC 21508
[28] = system: Salmonella enterica subsp. enterica serovar Enteritidis CMCC 50041
[29] = system: Salmonella enterica subsp. enterica serovar Heidelberg CICC 21487
[30] = system: Salmonella enterica subsp. enterica serovar Jerusalem CICC 21651
[31] = system: Salmonella enterica subsp. enterica serovar Kentucky CICC 21488
[32] = system: Salmonella enterica subsp. enterica serovar Meleagridis CICC 21511
[33] = system: Salmonella enterica subsp. enterica serovar Miami CICC 21509
[34] = system: Salmonella enterica subsp. enterica serovar Montevideo CICC 21588
[35] = system: Salmonella enterica subsp. enterica serovar Potsdam CICC 21500
[36] = system: Salmonella enterica subsp. enterica serovar Saintpaul CICC 21486
[37] = system: Salmonella enterica subsp. enterica serovar Senftenberg CICC 21502
[38] = system: Salmonella enterica subsp. enterica serovar Thompson CICC 21480
[39] = system: Salmonella enterica subsp. enterica serovar Typhimurium CICC 21483
[40] = system: Salmonella enterica subsp. enterica serovar Wandsworth CICC 21504
[41] = system: Salmonella typhimurium CMCC 50115
[42] = system: Staphylococcus aureus ATCC 29213
[43] = system: Staphylococcus aureus ATCC 43300
[44] = system: Staphylococcus epidermidis ATCC 12228
[45] = system: Bacillus megaterium ATCC 10778
[46] = system: Bacillus subtilis ATCC 6633
Candida albicans MDM8 = system: Candida albicans MDM8
[47] = system: Candida tropicalis IOC 4560
[48] = system: Enterobacter cloacae beta-12
Escherichia coli SBS 363 = system: Escherichia coli SBS 363
Micrococcus luteus A270 = system: Micrococcus luteus A270
[49] = system: Pseudomonas aeruginosa ATCC 27853
[50] = system: Serratia marcescens ATCC 4112

MIC [1]: 11.3 µM (≈ 21.6 µg/mL)
MIC [2]: 16 µM (≈ 30.5 µg/mL)
MIC [3]: 22.6 µM (≈ 43.2 µg/mL)
MIC [4]: ≥ 32 µM
MIC [5]: ≥ 32 µM
MIC [6]: ≥ 32 µM
MIC [7]: 8 µM (≈ 15.3 µg/mL)
MIC [8]: 22.6 µM (≈ 43.2 µg/mL)
SMILES: CC(C)C[C@H](NC(=O)[C@H](CC(C)C)NC(=O)[C@H](CCCCN)NC(=O)[C@H](CC(C)C)NC(=O)[C@H](CC(C)C)NC(=O)[C@H](CCCCN)NC(=O)[C@H](CCCCN)NC(=O)[C@H](CC(C)C)NC(=O)[C@H](CC(C)C)NC(=O)[C@H](CCCCN)NC(=O)[C@H](CCCCN)NC(=O)[C@H](Cc1c[nH]c2ccccc12)NC(=O)[C@@H](N)CCCCN)C(=O)N[C@@H](CCCCN)C(=O)N[C@@H](CCCCN)C(=O)O [KWKKLLKKLLKLLKK]

MIC (Escherichia coli BL21AI): ≥ 57.4 µM
MIC [9]: 28.7 µM (≈ 62.5 µg/mL)
SMILES: CC[C@H](C)[C@H](NC(=O)[C@H](CCCN=C(N)N)NC(=O)[C@H](CCCN=C(N)N)NC(=O)[C@@H]1CCCN1C(=O)[C@@H]1CCCN1C(=O)[C@@H](NC(=O)[C@@H]1CCCN1C(=O)[C@H](CCCN=C(N)N)NC(=O)[C@@H]1CCCN1C(=O)[C@H](CC(C)C)NC(=O)[C@H](Cc1ccc(O)cc1)NC(=O)[C@@H]1CCCN1C(=O)[C@@H]1CCCN1C(=O)[C@H](CCCCN)NC(=O)[C@H](CC(=O)O)NC(=O)[C@@H](N)C(C)C)[C@@H](C)O)C(=O)N[C@@H](Cc1ccc(O)cc1)C(=O)N[C@@H](CC(N)=O)C(=O)O [VDKPPYLPRPTPPRRIYN]

MIC [10]: ≥ 32 µM
MIC [11]: ≥ 32 µM
MIC [12]: ≥ 32 µM
MIC [13]: ≥ 32 µM
SMILES: CC(C)[C@H](NC(=O)[C@H](CCCCN)NC(=O)[C@@H](N)CCCN=C(N)N)C(=O)N[C@@H](CCCN=C(N)N)C(=O)NCC(=O)N1CCC[C@H]1C(=O)N1CCC[C@H]1C(=O)O [RKVRGPP]

MIC [14]: 1.08 µM (≈ 2 µg/mL)
MIC [15]: 1.08 µM (≈ 2 µg/mL)
MIC (Escherichia coli O157:H7): 2.16 µM (≈ 3.99 µg/mL)
MIC [16]: 2.16 µM (≈ 3.99 µg/mL)
MIC [17]: 2.16 µM (≈ 3.99 µg/mL)
MIC [18]: 2.16 µM (≈ 3.99 µg/mL)
MIC [19]: 2.16 µM (≈ 3.99 µg/mL)
MIC [20]: 2.16 µM (≈ 3.99 µg/mL)
MIC [21]: 4.31 µM (≈ 7.99 µg/mL)
MIC [22]: 1.08 µM (≈ 2 µg/mL)
MIC [23]: 2.16 µM (≈ 3.99 µg/mL)
MIC [24]: 2.16 µM (≈ 3.99 µg/mL)
MIC [25]: 2.16 µM (≈ 3.99 µg/mL)
MIC [26]: 2.16 µM (≈ 3.99 µg/mL)
MIC [27]: 2.16 µM (≈ 3.99 µg/mL)
MIC [28]: 4.31 µM (≈ 7.99 µg/mL)
MIC [29]: 1.08 µM (≈ 2 µg/mL)
MIC [30]: 4.31 µM (≈ 7.99 µg/mL)
MIC [31]: 2.16 µM (≈ 3.99 µg/mL)
MIC [32]: 2.16 µM (≈ 3.99 µg/mL)
MIC [33]: 4.31 µM (≈ 7.99 µg/mL)
MIC [34]: 2.16 µM (≈ 3.99 µg/mL)
MIC [35]: 1.08 µM (≈ 2 µg/mL)
MIC [36]: 1.08 µM (≈ 2 µg/mL)
MIC [37]: 2.16 µM (≈ 3.99 µg/mL)
MIC [38]: 2.16 µM (≈ 3.99 µg/mL)
MIC [39]: 2.16 µM (≈ 3.99 µg/mL)
MIC [40]: 2.16 µM (≈ 3.99 µg/mL)
MIC [41]: 2.16 µM (≈ 3.99 µg/mL)
MIC [42]: 2.16 µM (≈ 3.99 µg/mL)
MIC [43]: 4.31 µM (≈ 7.99 µg/mL)
MIC [44]: 2.16 µM (≈ 3.99 µg/mL)
SMILES: C[C@@H](O)[C@@H]1NC(=O)[C@@H](NC(=O)[C@H](CCCCN)NC(=O)[C@H](Cc2c[nH]c3ccccc23)NC(=O)[C@H](CCCCN)NC(=O)[C@@H](N)Cc2c[nH]c3ccccc23)CSSC[C@@H](C(=O)N[C@@H](CCCCN)C(=O)N[C@@H](Cc2c[nH]c3ccccc23)C(=O)N[C@@H](CCCCN)C(=O)N[C@@H](Cc2c[nH]c3ccccc23)C(N)=O)NC(=O)CNC(=O)[C@H](CO)NC(=O)[C@H](CCCCN)NC1=O [WKWKCTKSGCKWKW]

MIC [45]: 1.6 µM (≈ 2.48 µg/mL)
MIC [46]: 0.8 µM (≈ 1.24 µg/mL)
MIC (Candida albicans MDM8): 3.1 µM (≈ 4.8 µg/mL)
MIC [47]: 1.6 µM (≈ 2.48 µg/mL)
MIC [48]: 12.5 µM (≈ 19.4 µg/mL)
MIC (Escherichia coli SBS 363): 1.6 µM (≈ 2.48 µg/mL)
MIC (Micrococcus luteus A270): 1.6 µM (≈ 2.48 µg/mL)
MIC [49]: 12.5 µM (≈ 19.4 µg/mL)
MIC [50]: 0.4 µM (≈ 0.62 µg/mL)
MIC [42]: 1.6 µM (≈ 2.48 µg/mL)
SMILES: CC(C)C[C@H](NC(=O)[C@H](C)NC(=O)[C@H](CCCN=C(N)N)NC(=O)[C@H](CC(C)C)NC(=O)[C@@H](N)Cc1ccccc1)C(=O)N[C@@H](Cc1c[nH]c2ccccc12)C(=O)N[C@@H](CC(N)=O)C(=O)N[C@H](C(=O)N[C@@H](C)C(=O)N[C@@H](CCCCN)C(=O)N[C@@H](CO)C(=O)N[C@H](C(=O)N[C@@H](Cc1ccccc1)C(N)=O)C(C)C)C(C)C [FLRALWNVAKSVF]
